1 substance from US7226911B2, “Hair keratin-associated proteins” (Keio University, priority 2001, dated 2007) can be followed below.

The test system of test [1] is hair cycle of mouse body hair. Briefly: effect of the functional peptide to the hair cycle of mouse body hair. The class given is in vivo. The settings on record: C3H/He mouse, applied to skin, 1% peptide. The text has this:
For the application of KAPs as hair growth agent, there is a possible problem for permeability to tissues in an intact size. Therefore, from the point of view of being a hair constituent element, the minimum repeat unit on KAP sequences was searched and designing of peptides was attempted with the crosslinking within the tissues as a goal. After preparing alignment from the primary sequence of amino acid obtained in Example 7, repeat motifs are searched, and 2 functional peptides, namely mouse high sulfur type KAPs: N′-SCCXPSCCXP-C′ (X: Q, V, R, I) [Seq. ID No. 2031, and mouse high G/Y type KAPs: N′-YGGXGYGSGY-C′ (X: Y, L, F)[Seq. ID No. 204] were designed. By using these functional peptides, the action to hair formation and hair-matrix cells was evaluated. […] Peptide solvent (Plasebo) was used as a negative control, and […] MINOXIDIL was used as a positive control. […] The effect was significant compared not only with peptide solvent as a negative control (FIG. 30), but also with MINOXIDIL of the same concentration, being a positive control (FIG. 31).

The test system of test [2] is mouse hair-matrix cells. Briefly: action on isolated mouse hair-matrix cells (energy metabolism activity in the mitochondria; change of form). The class given is cell-based. The settings on record: during peptide treatment.

Regarding “N′-YGGXGYGSGY-C′ (X: Y, L, F) [high G/Y type peptide]”, in test [1], the “effect to the hair cycle of mouse body hair (duration until hair coat / formation of body hair)” value is given as “shortening effect of the duration until hair coat was observed”. The “change of form of hair-matrix cells” value in test [2] is reported as “a change of form of hair-matrix cells associated with the differentiation was observed”.
